Source: ChEMBL document CHEMBL4359852, “Design, synthesis and biological evaluation of novel 5-(piperazin-1-yl)quinolin-2(1H)-one derivatives as potential chitin synthase inhibitors and antifungal agents” (Eur J Med Chem, 2019)
≈ marks a conversion by molar mass, not a printed value.

Columns and labels:
Proteus vulgaris = assay: Antibacterial activity against Bacillus proteus ATCC 8427 assessed as reduction in bacterial cell growth incubated for overnight by two-fold serial dilution method; assay type: functional
Pseudomonas aeruginosa = assay: Antibacterial activity against Pseudomonas aeruginosa ATCC 9027 assessed as reduction in bacterial cell growth incubated for overnight by two-fold serial dilution method; assay type: functional
Bacillus subtilis = assay: Antibacterial activity against Bacillus subtilis ATCC 6633 assessed as reduction in bacterial cell growth incubated for overnight by two-fold serial dilution method; assay type: functional
Staphylococcus aureus [1] = assay: Antibacterial activity against Staphylococcus aureus ATCC 25923 assessed as reduction in bacterial cell growth incubated for overnight by two-fold serial dilution method; assay type: functional
Escherichia coli = assay: Antibacterial activity against Escherichia coli JM109 assessed as reduction in bacterial cell growth incubated for overnight by two-fold serial dilution method; assay type: functional
Staphylococcus aureus [2] = assay: Antibacterial activity against methicillin resistant Staphylococcus aureus N 315 assessed as reduction in bacterial cell growth incubated for overnight by two-fold serial dilution method; assay type: functional
Aspergillus flavus = assay: Antifungal activity against Aspergillus flavus ATCC 16870 assessed as reduction in fungal cell growth incubated for 48 hrs by two-fold serial dilution method; assay type: functional; details: ATCC 16870, 48 h
Cryptococcus neoformans = assay: Antifungal activity against Cryptococcus neoformans ATCC 32719 assessed as reduction in fungal cell growth incubated for 48 hrs by two-fold serial dilution method; assay type: functional; details: ATCC 32719, 48 h
Candida albicans = assay: Antifungal activity against Candida albicans ATCC 76615 assessed as reduction in fungal cell growth incubated for 48 hrs by two-fold serial dilution method; assay type: functional; details: ATCC 76615, 48 h
Saccharomyces cerevisiae = assay: Inhibition of Saccharomyces cerevisiae CGMCC 2.145 chitin synthase using GlcNAc and UDP-GlcNAc as substrate at 300 ug/ml incubated for 60 mins by microplate reader analysis relative to control

Row | Compound | MIC (Proteus vulgaris) [µg/mL] | MIC (Pseudomonas aeruginosa) [µg/mL] | MIC (Bacillus subtilis) [µg/mL] | MIC (Staphylococcus aureus [1]) [µg/mL] | MIC (Escherichia coli) [µg/mL] | MIC (Staphylococcus aureus [2]) [µg/mL] | MIC (Aspergillus flavus) [µg/mL] | MIC (Cryptococcus neoformans) [µg/mL] | MIC (Candida albicans) [µg/mL] | inhibition (Saccharomyces cerevisiae) [%]
1 | CCn1cc(C(=O)O)c(=O)c2cc(F)c(N3CCNCC3)cc21 [NORFLOXACIN] | 2 (≈ 6.26 µM) | 0.5 (≈ 1.57 µM) | 1 (≈ 3.13 µM) | 2 (≈ 6.26 µM) | 1 (≈ 3.13 µM) | 2 (≈ 6.26 µM) |  |  |  | 
2 | CC(C)(C)NCC(O)CN1CCN(c2cccc3c2CCC(=O)N3)CC1.Cl (racemic) | 256 | 128 | 512 | 256 | 256 | 256 | 256 | 256 | 128 | 48.3
3 | Cl.O=C1CCc2c(cccc2N2CCN(CC(O)Cn3cnnc3)CC2)N1 (racemic) | 64 | 128 | 128 | 128 | 64 | 256 | 256 | 128 | 64 | 30.8
4 | Cl.O=C1CCc2c(cccc2N2CCN(CC(O)CN(CCO)CCO)CC2)N1 (racemic) | 256 | 256 | 256 | 256 | 256 | 512 | 256 | 256 | 128 | 34.5
5 | Cc1ccccc1NCC(O)CN1CCN(c2cccc3c2CCC(=O)N3)CC1.Cl (racemic) | 128 | 128 | 128 | 128 | 256 | 128 | 256 | 256 | 128 | 28.4
6 | Cl.O=C1CCc2c(cccc2N2CCN(CC(O)CN3CCNCC3)CC2)N1 (racemic) | 256 | 128 | 128 | 256 | 256 | 256 | 256 | 256 | 128 | 38.6
7 | Cl.O=C1CCc2c(cccc2N2CCN(CC(O)CN3CCCCC3)CC2)N1 (racemic) | 256 | 256 | 256 | 256 | 128 | 512 | 256 | 256 | 64 | 32.4
8 | OC(Cn1cncn1)(Cn1cncn1)c1ccc(F)cc1F [FLUCONAZOLE] |  |  |  |  |  |  | 64 (≈ 209 µM) | 4 (≈ 13.1 µM) | 16 (≈ 52.2 µM) | 
9 | Cl.O=C1CCc2c(cccc2N2CCN(CC(O)CNCc3ccc(Cl)cc3)CC2)N1 (racemic) | 128 | 256 | 256 | 256 | 256 | 256 | 256 | 256 | 128 | 42.5
10 | CCN(CC)CC(O)CN1CCN(c2cccc3c2CCC(=O)N3)CC1.Cl (racemic) | 512 | 128 | 512 | 256 | 512 | 256 | 512 | 256 | 128 | 39.4
11 | Cc1ccc(NCC(O)CN2CCN(c3cccc4c3CCC(=O)N4)CC2)cc1.Cl (racemic) | 64 | 128 | 128 | 64 | 128 | 64 | 128 | > 512 | 128 | 17.6
12 | CN[C@@H]1[C@H](O[C@H]2[C@H](O[C@H]3[C@H](O)[C@@H](O)[C@H](N=C(N)N)[C@@H](O)[C@@H]3N=C(N)N)O[C@@H](C)[C@]2(O)C=O)O[C@@H](CO)[C@H](O)[C@H]1O.CN[C@@H]1[C@H](O[C@H]2[C@H](O[C@H]3[C@H](O)[C@@H](O)[C@H](N=C(N)N)[C@@H](O)[C@@H]3N=C(N)N)O[C@@H](C)[C@]2(O)C=O)O[C@@H](CO)[C@H](O)[C@H]1O.O=S(=O)(O)O.O=S(=O)(O)O.O=S(=O)(O)O [STREPTOMYCIN SULFATE] | 16 | 16 | 8 | 8 | 4 | 32 |  |  |  | 
